Measurements: PubChem BioAssay AID1918936 (Molecular Pharmacology Branch, DTP, NCI, 2023)
pIC50: −log10 of the molar value. Values joined by “and” are separate entries in the source; they are usually repeats but may differ in a detail not shown here. Equal entries are not always repeated.

System: 349418-098-R-PDC complex spheroid viability
Assay: Anticancer human tumor 349418-098-R-PDC patient-derived lung adenocarcinoma cell line growth inhibition
Conditions: for viability, T/C: stronger effect = lower value; for pIC50: curve of compound
Description: Multicellular complex tumor spheroid response to LSD1 Inhibitor Iadademstat in combination with a variety of drugs and investigational agents in selected tumor cell lines
The current study was undertaken to assess response to LSD1 inhibitors in combination with standard-of-care drugs and investigational agents in solid tumor complex spheroid models as well as in the K-562 leukemia. Complex spheroids include a stromal component modeled by human endothelial cells (HUVEC) and fibroblasts modeled by human mesenchymal stem cells (MSCs). The concentration ranges selected for each drug and investigational agent were based upon clinically achievable concentrations if the clinical Cmax of the agent was known.
Compounds. The drugs and investigational agents used in this study are listed on Table 1. All of the agents used, including staurosporine (NSC755774) and gemcitabine (NSC613327), were obtained from the Developmental Therapeutics Program, NCI. FDA-approved anticancer drugs are available from the NCI at http://dtp.nci.nih.gov/branches/dscb/oncology_drugset_explanation.html. Drugs and investigational agents were >95% pure by proton nuclear magnetic resonance (NMR) and liquid chromatography/mass spectrometry (LC/MS). Stock solutions were prepared at 400x in DMSO, stored at -70 degrees C, and diluted in fresh medium prior to their use. The final concentration of DMSO in cell culture wells never exceeded 0.25% (v/v). The FDA-approved anticancer drug set is available from the Developmental Therapeutics Program at https://dtp.cancer.gov/organization/dscb/obtaining/available_plates.htm. All drugs and investigational agents were tested over a range starting from a high concentration at or near the clinical Cmax and decreasing in half-log increments. If the clinical Cmax for an agent had not been determined, the highest concentration tested was 10 microM.
Cell Lines. The patient-derived cancer cell (PDC) lines: 292921-168-R-J2-PDC, K24384-001-R-PDC, and 521955-158-R2-J5-PDC pancreatic carcinomas, 556581-035-R-J1 ovarian carcinoma, 324938-238-R-J1-PDC, 855422-203-R-J1-PDC and 883617-216-R-J1-PDC urothelial bladder carcinomas, 743489-274-T-PDC renal cell carcinoma, 138582-R-J1 Merkel cell tumor, K60290-347-R-J1 and K57222-313-R-J1-PDC glioblastomas, 653999-131-R-J2-PDC, LG0703-F948-PDC, and 349418-098-R-PDC non-small cell lung carcinomas, 885512-296-R-J2-PDC, 171881-019-R-J1-PDC breast carcinomas and 186277-243-T-J2-PDC and 233499-124-R-J2-PDC colon carcinomas were obtained from the NCI Patient-Derived Models Repository (PDMR, https://pdmr.cancer.gov). The established cell lines NCI/ADR-RES (RRID:CVCL_14520 and OVCAR-5 (RRID:CVCL_1628) ovarian carcinomas, 786-O (RRID:CVCL_1051) and A498 (RRID:CVCL_A498) renal cell carcinoma, NCI-H211 (ATCC, cat. CRL-5824; RRID:CVCL_1529), NCI-H196 (ATCC, cat. CRL-5823, RRID:CVCL_1509), SW 1271 (ATCC, cat. CRL-2177, RRID:CVCL_1716) and NCI-H1876 (ATCC, cat. CRL-5902, RRID:CVCL_1503) small cell lung carcinomas, MDA-MB-231 (RRID:CVCL_0062) and MDA-MB-468 (RRID:CVCL_0419)breast carcinomas (10-12). Pooled donor human umbilical vein endothelial cells (HUVEC, Lonza, cat. CC-2519) and human mesenchymal stem cells (hMSC, Lonza, cat. PT-2501) were purchased from Lonza (Walkersville, MD).
Cell Culture. All cells were maintained in an incubator at 37 degrees C and 5% CO2 with 95% humidity. The PDC lines were cultured according to standard operating procedures established by the NCI PDMR (https://pdmr.cancer.gov). Briefly all PDCs were thawed and cultured in Matrigel-coated flasks prepared with a working solution of 1X Ham's F-12 nutrient mix, without supplementation (Invitrogen, Waltham, MA, cat. 11765054), 100 U/mL penicillin-streptomycin (Invitrogen, cat. 15140122), and 2.5% Matrigel (Corning Inc., Corning, NY, cat. 354248) for the first three passages. […]
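Further: spheroids exposed to agents for seven days before readout.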
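Wherever viability, T/C is given: 100% = DMSO vehicle control wells.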

Q: With `CC(C)CC(NC(=O)C(Cc1ccccc1)NC(=O)c1cnccn1)B(O)O` (configuration not stated) as the compound, how does the viability, T/C (compound 0.000316 µM) read?
A: Its viability, T/C is 9.44% and 1.92%.

Q: What about the viability, T/C (compound 0.001 µM) of the same compound?
A: Its viability, T/C is 1.9% and 1.46%.

Q: What about the viability, T/C (compound 0.00316 µM) of the same compound?
A: Its viability, T/C is 1.14% and 0.84%.

Q: What about the viability, T/C (compound 0.01 µM) of the same compound?
A: Its viability, T/C is 0.78% and 0.64%.

Q: What about the viability, T/C (compound 0.0316 µM) of the same compound?
A: The viability, T/C was 0.63% and 0.42%.

Q: What about the viability, T/C (compound 0.1 µM) of the same compound?
A: Its viability, T/C is 0.67% and 0.41%.

Q: And the pIC50?
A: Its pIC50 is over 9.50.

Q: `CC(C)CC(NC(=O)CNC(=O)c1cc(Cl)ccc1Cl)B1OC(=O)CC(CC(=O)O)(C(=O)O)O1` (configuration not stated) was tested. Which viability, T/C (compound 0.000316 µM) did it give?
A: Its viability, T/C is 88.8% and 103%.

Q: What about the viability, T/C (compound 0.001 µM) of the same compound?
A: Its viability, T/C is 24.5% and 38.9%.

Q: And the viability, T/C (compound 0.00316 µM)?
A: Its viability, T/C is 4.47% and 4.31%.

Q: What about the viability, T/C (compound 0.01 µM) of the same compound?
A: Its viability, T/C is 2.14% and 2%.

Q: What about the viability, T/C (compound 0.0316 µM) of the same compound?
A: The viability, T/C was 1.69% and 1.05%.

Q: And the viability, T/C (compound 0.1 µM)?
A: Its viability, T/C is 1.35% and 1.12%.

Q: What about the pIC50 of the same compound?
A: The pIC50 was 9.20 and 9.09.

Q: How did the viability, T/C (compound 0.0316 µM) turn out when `CC(C)c1c(-c2ccccc2)nc2c(C#N)c[nH]n2c1=O` was run?
A: Its viability, T/C is 97% and 109%.

Q: And the viability, T/C (compound 0.1 µM)?
A: The viability, T/C was 105% and 109%.

Q: What about the viability, T/C (compound 0.316 µM) of the same compound?
A: The viability, T/C was 101% and 104%.

Q: And the viability, T/C (compound 1 µM)?
A: Its viability, T/C is 95.7% and 105%.

Q: What about the viability, T/C (compound 3.16 µM) of the same compound?
A: The viability, T/C was 97.2% and 95.9%.

Q: And the viability, T/C (compound 10 µM)?
A: The viability, T/C was 85.2% and 82.5%.

Q: What about the pIC50 of the same compound?
A: Its pIC50 is under 5.00.

Q: Which results are given for `CC1(C)CCC(CN2CCN(c3ccc(C(=O)NS(=O)(=O)c4ccc(NCC5CCOCC5)c([N+](=O)[O-])c4)c(Oc4cnc5[nH]ccc5c4)c3)CC2)=C(c2ccc(Cl)cc2)C1`?
A: viability, T/C (compound 0.0316 µM): 98.4% and 106%; viability, T/C (compound 0.1 µM): 88.2% and 103%; viability, T/C (compound 0.316 µM): 95.9% and 91.1%; viability, T/C (compound 1 µM): 84.3% and 68.4%; viability, T/C (compound 3.16 µM): 67.7% and 24.9%; viability, T/C (compound 10 µM): 13.5% and 0.24%; pIC50: 5.34 and 5.80

Q: For `CC1COCCN1c1cc(-c2ccnn2C)c2ccnc(-c3ccn[nH]3)c2n1` (configuration not stated), which viability, T/C (compound 0.00316 µM) is on record?
A: The viability, T/C was 104% and 25.4%.

Q: What about the viability, T/C (compound 0.01 µM) of the same compound?
A: Its viability, T/C is 61.4% and 14.9%.

Q: And the viability, T/C (compound 0.0316 µM)?
A: The viability, T/C was 14.5% and 8.01%.

Q: What about the viability, T/C (compound 0.1 µM) of the same compound?
A: The viability, T/C was 8.8% and 6.27%.

Q: And the viability, T/C (compound 0.316 µM)?
A: The viability, T/C was 7.72% and 5.55%.

Q: And the viability, T/C (compound 1 µM)?
A: Its viability, T/C is 5.78% and 4.24%.

Q: What about the pIC50 of the same compound?
A: The pIC50 was 7.88 and > 8.50.

Q: What does the source list for `CC1COCCN1c1cc(C2(S(C)(=N)=O)CC2)nc(-c2ccnc3[nH]ccc23)n1` (configuration not stated)?
A: viability, T/C (compound 0.0316 µM): 106% and 107%; viability, T/C (compound 0.1 µM): 91.2% and 108%; viability, T/C (compound 0.316 µM): 57% and 96.7%; viability, T/C (compound 1 µM): 14.8% and 49.8%; viability, T/C (compound 3.16 µM): 10.1% and 11.9%; viability, T/C (compound 10 µM): 10.6% and 11.5%; pIC50: 6.43 and 6.01

Q: How did the viability, T/C (compound 0.00949 µM) turn out when `CCN(c1cc(-c2ccc(CN3CCOCC3)cc2)cc(C(=O)NCc2c(C)cc(C)[nH]c2=O)c1C)C1CCOCC1` was run?
A: Its viability, T/C is 91.2% and 96.2%.

Q: And the viability, T/C (compound 0.03 µM)?
A: Its viability, T/C is 100% and 97.8%.

Q: What about the viability, T/C (compound 0.0949 µM) of the same compound?
A: The viability, T/C was 93.4% and 87.5%.

Q: What about the viability, T/C (compound 0.3 µM) of the same compound?
A: Its viability, T/C is 91.6% and 50.8%.

Q: What about the viability, T/C (compound 0.949 µM) of the same compound?
A: Its viability, T/C is 76.7% and 26.2%.

Q: And the viability, T/C (compound 3 µM)?
A: Its viability, T/C is 68.7% and 10%.

Q: What about the pIC50 of the same compound?
A: The pIC50 was < 5.52 and 6.46.

Q: `CC[C@@]1(O)C(=O)OCc2c1cc1n(c2=O)Cc2cc3c(CN(C)C)c(O)ccc3nc2-1` was tested. Which viability, T/C (compound 0.000316 µM) did it give?
A: Its viability, T/C is 105% and 95.3%.

Q: What about the viability, T/C (compound 0.001 µM) of the same compound?
A: Its viability, T/C is 84.7% and 94.4%.

Q: And the viability, T/C (compound 0.00316 µM)?
A: The viability, T/C was 32.5% and 43.5%.

Q: What about the viability, T/C (compound 0.01 µM) of the same compound?
A: The viability, T/C was 10.2% and 9.41%.

Q: And the viability, T/C (compound 0.0316 µM)?
A: The viability, T/C was 6.03% and 5.47%.

Q: What about the viability, T/C (compound 0.1 µM) of the same compound?
A: The viability, T/C was 3.25% and 3.14%.

Q: And the pIC50?
A: Its pIC50 is 8.67 and 8.56.

Q: What does the source list for `CCc1c2c(nc3ccc(O)cc13)-c1cc3c(c(=O)n1C2)COC(=O)[C@]3(O)CC`?
A: viability, T/C (compound 0.000949 µM): 4.32% and 3.69%; viability, T/C (compound 0.003 µM): 2.63% and 2.24%; viability, T/C (compound 0.00949 µM): 1.82% and 1.28%; viability, T/C (compound 0.03 µM): 1.29% and 1.41%; viability, T/C (compound 0.0949 µM): 1.48% and 2.01%; viability, T/C (compound 0.3 µM): 1.75% and 2.19%; pIC50: > 9.02

Q: How did the viability, T/C (compound 0.00949 µM) turn out when `COc1cc(C2c3cc4c(cc3C(OC3OC5COC(C)OC5C(O)C3O)C3COC(=O)C23)OCO4)cc(OC)c1O` (configuration not stated) was run?
A: The viability, T/C was 93.8% and 95.9%.

Q: What about the viability, T/C (compound 0.03 µM) of the same compound?
A: The viability, T/C was 85.4% and 73.6%.

Q: And the viability, T/C (compound 0.0949 µM)?
A: Its viability, T/C is 48.8% and 24.1%.

Q: And the viability, T/C (compound 0.3 µM)?
A: Its viability, T/C is 13.5% and 6.74%.

Q: And the viability, T/C (compound 0.949 µM)?
A: Its viability, T/C is 7.1% and 4.19%.

Q: And the viability, T/C (compound 3 µM)?
A: The viability, T/C was 4.85% and 3.34%.

Q: And the pIC50?
A: Its pIC50 is 7.04 and 7.28.

Q: Which viability, T/C (compound 0.00316 µM) does the source give for `COc1cc(Nc2ncc3c(n2)-c2ccc(Cl)cc2C(c2c(F)cccc2OC)=NC3)ccc1C(=O)O` here?
A: Its viability, T/C is 81.5% and 59.7%.

Q: And the viability, T/C (compound 0.01 µM)?
A: Its viability, T/C is 63.8% and 43.1%.

Q: And the viability, T/C (compound 0.0316 µM)?
A: Its viability, T/C is 35.4% and 41.2%.

Q: And the viability, T/C (compound 0.1 µM)?
A: The viability, T/C was 40.7% and 45.3%.

Q: What about the viability, T/C (compound 0.316 µM) of the same compound?
A: Its viability, T/C is 31.1% and 40.4%.

Q: What about the viability, T/C (compound 1 µM) of the same compound?
A: Its viability, T/C is 31.7% and 39.1%.

Q: And the pIC50?
A: Its pIC50 is 7.76 and 8.21.
